Measurements reported in EPA's ToxRefDB 2.

Key:
[1] = test system: dog; details: Subchronic oral toxicity in nonrodent, beagle, Water, dose end: 90 day, group: systemic, systemic / in life observation / clinical signs / vomitting
[2] = test system: rat; details: Multigenerational reproductive toxicity study, sprague dawley, Oral, Water, dose end: 2 generation
[3] = test system: rat; details: Prenatal developmental toxicity study, wistar, Oral, Gavage/Intubation, dose end: 15 GD
[4] = test system: mouse; details: Chronic toxicity; b6c3f1; Inhalation; Whole-Body; dose end: 78 week; group: systemic; systemic / in life observation / body weight / body weight gain + systemic / pathology microscopic / nose / hyperplasia
[5] = test system: rat; details: Multigenerational reproductive toxicity study, wistar, Oral, Water, dose end: 2 generation
[6] = test system: rabbit; details: Prenatal developmental toxicity study, himalayan, Oral, Gavage/Intubation, dose end: 19 GD
[7] = test system: rat; details: Combined chronic toxicity/carcinogenicity, fischer, Oral, Water, dose end: 104 week, group: systemic
[8] = test system: rat; details: Subchronic inhalation toxicity, fischer, Whole-Body, dose end: 13 week, group: systemic
[9] = test system: rat; details: Carcinogenicity, wistar, Oral, Water, dose end: 24 month, group: systemic
[10] = test system: rat; details: Chronic toxicity, wistar, Oral, Water, dose end: 12 month, group: systemic
[11] = test system: rat; details: Subchronic dermal toxicity, sprague dawley, Topical, dose end: 90 day, group: systemic, systemic / pathology gross / skin / scabbing + systemic / pathology microscopic / skin / acanthosis + systemic / pathology microscopic / …
[12] = test system: mouse; details: Subchronic oral toxicity in rodents, cd1, Water, dose end: 90 day, group: systemic, systemic / pathology microscopic / stomach / inflammation + systemic / urinalysis / specific gravity/osmolality / specific gravity/…
[13] = test system: mouse; details: Subchronic inhalation toxicity, b6c3f1, Whole-Body, dose end: 13 week
[14] = test system: rat; details: Multigenerational reproductive toxicity study, sprague dawley, Oral, Water, dose end: 2 generation; remark: listed apart in the source
[15] = test system: rat; details: Multigenerational reproductive toxicity study; sprague dawley; Oral; Feed; dose end: 2 generation; group: offspring; systemic / in life observation / body weight / offspring (pup) weight
[16] = test system: mouse; details: Carcinogenicity, cd1, Oral, Feed, dose end: 104 week, group: systemic
[17] = test system: rat; details: Prenatal developmental toxicity study, sprague dawley, Oral, Gavage/Intubation, dose end: 15 GD
[18] = group: offspring, systemic / in life observation / body weight / offspring (pup) weight
[19] = group: parental, systemic / in life observation / food consumption / food consumption
[20] = group: parental, systemic / in life observation / food consumption / food consumption + systemic / pathology gross / lymph node / enlarged + systemic / …
[21] = group: developmental, systemic / in life observation / body weight / fetal weight
[22] = group: maternal, systemic / in life observation / body weight / body weight gain + systemic / in life observation / clinical signs / piloerection + systemic…
[23] = group: maternal, systemic / in life observation / clinical signs / piloerection
[24] = group: offspring, systemic / in life observation / body weight / litter weight + systemic / in life observation / body weight / offspring (pup) weight
[25] = group: parental, systemic / in life observation / body weight / body weight + systemic / in life observation / body weight / body weight gain + systemic / in…
[26] = group: parental, systemic / in life observation / water consumption / water consumption
[27] = group: maternal, systemic / in life observation / body weight / body weight + systemic / in life observation / body weight / body weight gain + systemic / in…
[28] = systemic / organ weight / kidney / relative to body weight + systemic / in life observation / clinical signs / urine staining - perineum + …
[29] = systemic / organ weight / kidney / relative to body weight + systemic / pathology gross / stomach / [other] + systemic / clinical chemistry…
[30] = systemic / pathology microscopic / nose / [other] + systemic / pathology microscopic / nose / hyperplasia + systemic / pathology microscopic…
[31] = systemic / in life observation / water consumption / water consumption
[32] = systemic / in life observation / body weight / body weight gain + systemic / pathology gross / stomach / erosion + systemic / pathology …
[33] = group: developmental, developmental / developmental malformation / penis / paraphimosis
[34] = group: maternal, reproductive / reproductive performance / estrous cycle / abnormal
[35] = group: systemic, systemic / pathology microscopic / nose / inflammation
[36] = group: systemic, systemic / pathology microscopic / nose / inflammation + systemic / in life observation / body weight / body weight gain
[37] = group: offspring, systemic / in life observation / body weight / offspring (pup) weight gain
[38] = systemic / in life observation / body weight / body weight gain + systemic / pathology microscopic / intestine small / hyperplasia + …
[39] = group: developmental, developmental / developmental malformation / bone / absent + developmental / developmental malformation / bone / fused + developmental / …
[40] = group: maternal, systemic / in life observation / clinical signs / alopecia + systemic / in life observation / clinical signs / defecation (diarrhea) + …

O=CCCCC=O [Glutaraldehyde]
LEL [1]: 14.6 mg/kg/day
LOAEL [1]: 14.6 mg/kg/day
NEL [1]: 9.8 mg/kg/day
NOAEL [1]: 9.8 mg/kg/day
LEL [2, 18]: 71.1 mg/kg/day
LOAEL [2, 18]: 71.1 mg/kg/day
NEL [2, 18]: 20.9 mg/kg/day
NOAEL [2, 18]: 20.9 mg/kg/day
LEL [2, 19]: 19.5 mg/kg/day
LOAEL [2, 19]: 19.5 mg/kg/day
NEL [2, 20]: 4.25 mg/kg/day
NOAEL [2, 20]: 4.25 mg/kg/day
LEL [3, 21]: 100 mg/kg/day
LOAEL [3, 21]: > 100 mg/kg/day
NEL [3, 21]: 50 mg/kg/day
NOAEL [3, 21]: ≥ 100 mg/kg/day
LOAEL [3, 22]: > 100 mg/kg/day
NOAEL [3, 22]: ≥ 100 mg/kg/day
LEL [3, 23]: 25 mg/kg/day
NEL [3, 23]: < 25 mg/kg/day
LEL [4]: 0.1 ppm
LOAEL [4]: > 0.1 ppm
NEL [4]: < 0.1 ppm
NOAEL [4]: ≥ 0.1 ppm
LEL [5, 24]: 76 mg/kg/day
LOAEL [5, 24]: 76 mg/kg/day
NEL [5, 24]: 22.4 mg/kg/day
NOAEL [5, 24]: 22.4 mg/kg/day
LOAEL [5, 25]: 76 mg/kg/day
NOAEL [5, 25]: 22.4 mg/kg/day
LEL [5, 26]: 22.4 mg/kg/day
NEL [5, 26]: 4.7 mg/kg/day
LEL [6, 21]: 45 mg/kg/day
LOAEL [6, 21]: 45 mg/kg/day
NEL [6, 21]: 15 mg/kg/day
NOAEL [6, 21]: 15 mg/kg/day
LEL [6, 27]: 45 mg/kg/day
LOAEL [6, 27]: 45 mg/kg/day
NEL [6, 27]: 15 mg/kg/day
NOAEL [6, 27]: 15 mg/kg/day
LEL [7, 28]: 4 mg/kg/day
NEL [7, 28]: < 4 mg/kg/day
LOAEL [7, 29]: > 64 mg/kg/day
NOAEL [7, 29]: ≥ 64 mg/kg/day
LEL ([8]; systemic / hematology / neutrophils / neutrophils): 0.125 ppm
NEL ([8]; systemic / hematology / neutrophils / neutrophils + systemic / clinical chemistry / alanine aminotransferase (alt/sgpt) / alanine …): 0.0625 ppm
LOAEL [8, 30]: 0.25 ppm
NOAEL [8, 30]: 0.125 ppm
LEL [9, 31]: 5.3 mg/kg/day
NEL [9, 31]: < 5.3 mg/kg/day
LOAEL ([9]; systemic / pathology microscopic / larynx / metaplasia): 61 mg/kg/day
NOAEL ([9]; systemic / pathology microscopic / larynx / metaplasia + systemic / in life observation / body weight / body weight + systemic / in life …): 16.1 mg/kg/day
LOAEL [10, 32]: 58.9 mg/kg/day
NOAEL [10, 32]: 15.4 mg/kg/day
LEL ([10]; systemic / pathology gross / pituitary gland / enlarged): 23.2 mg/kg/day
NEL ([10]; systemic / pathology gross / pituitary gland / enlarged + systemic / in life observation / clinical signs / abnormal respiratory sounds + …): 4.8 mg/kg/day
LEL [11]: 50 mg/kg/day
LOAEL [11]: 50 mg/kg/day
NEL [11]: < 50 mg/kg/day
NOAEL [11]: < 50 mg/kg/day
LEL [12]: 200 mg/kg/day
LOAEL [12]: 200 mg/kg/day
NEL [12]: 60.8 mg/kg/day
NOAEL [12]: 60.8 mg/kg/day
LEL [13, 33]: 1 ppm
LOAEL [13, 33]: > 1 ppm
NEL [13, 33]: 0.5 ppm
NOAEL [13, 33]: ≥ 1 ppm
LEL [13, 34]: 0.5 ppm
LOAEL [13, 34]: > 1 ppm
NEL [13, 34]: 0.25 ppm
NOAEL [13, 34]: ≥ 1 ppm
LOAEL [13, 35]: 0.0625 ppm
NOAEL [13, 35]: < 0.0625 ppm
LEL [13, 36]: 0.0625 ppm
NEL [13, 36]: < 0.0625 ppm
LEL [14, 37]: 98.4 mg/kg/day
LOAEL [14, 37]: 98.4 mg/kg/day
NEL [14, 37]: 28.3 mg/kg/day
NOAEL [14, 37]: 28.3 mg/kg/day
LEL [14, 26]: 19.5 mg/kg/day
LOAEL [14, 26]: > 69.1 mg/kg/day
NEL [14, 26]: 4.25 mg/kg/day
NOAEL [14, 26]: ≥ 69.1 mg/kg/day

N#CSCSc1nc2ccccc2s1 [2-(Thiocyanomethylthio)benzothiazole]
LEL [15]: 38.4 mg/kg/day
LOAEL [15]: 38.4 mg/kg/day
NEL [15]: 9.6 mg/kg/day
NOAEL [15]: 9.6 mg/kg/day
LOAEL ([16]; systemic / in life observation / body weight / body weight gain + systemic / pathology microscopic / intestine small / hyperplasia): 148 mg/kg/day
LEL [16, 38]: 148 mg/kg/day
NEL [16, 38]: 49.3 mg/kg/day
NOAEL [16, 38]: 49.3 mg/kg/day
LEL [17, 39]: 126 mg/kg/day
LOAEL [17, 39]: 126 mg/kg/day
NEL [17, 39]: 76.5 mg/kg/day
NOAEL [17, 39]: 76.5 mg/kg/day
LEL [17, 40]: 76.5 mg/kg/day
LOAEL [17, 40]: 76.5 mg/kg/day
NEL [17, 40]: 25.1 mg/kg/day
NOAEL [17, 40]: 25.1 mg/kg/day
